# Assay results reported in PMC4780864, “Family-wide Structural Analysis of Human Numb-Associated Protein Kinases” (Structure(London, England:1993), 2016).
# Legend:
# Experiment in all cases: biochemical
# BIKE = target: T1, BIKE (Homo sapiens, UniProt Q9NSY1); parameters: Thermal shift assay (DSF, SYPRO Orange), 2 uM kinase domain, mean delta Tm of triplicates versus DMSO; conditions: read-out: BIKE
# T1 construct: gene BMP2K; catalytic domain-containing construct
# Experimental: (§1) All measurements were performed in triplicate and mean values were reported for all compounds (Table S1). […] However, NAKs are often omitted from selectivity panels, including commercial screens.
# GAK = target: T2, GAK (Homo sapiens, UniProt O14976); parameters: Thermal shift assay (DSF, SYPRO Orange), 2 uM kinase domain, mean delta Tm of triplicates versus DMSO; conditions: for ΔTm at 12.5 µM: read-out: GAK
# T2 construct: catalytic domain-containing construct
# T2 sequence (O14976 1-1311): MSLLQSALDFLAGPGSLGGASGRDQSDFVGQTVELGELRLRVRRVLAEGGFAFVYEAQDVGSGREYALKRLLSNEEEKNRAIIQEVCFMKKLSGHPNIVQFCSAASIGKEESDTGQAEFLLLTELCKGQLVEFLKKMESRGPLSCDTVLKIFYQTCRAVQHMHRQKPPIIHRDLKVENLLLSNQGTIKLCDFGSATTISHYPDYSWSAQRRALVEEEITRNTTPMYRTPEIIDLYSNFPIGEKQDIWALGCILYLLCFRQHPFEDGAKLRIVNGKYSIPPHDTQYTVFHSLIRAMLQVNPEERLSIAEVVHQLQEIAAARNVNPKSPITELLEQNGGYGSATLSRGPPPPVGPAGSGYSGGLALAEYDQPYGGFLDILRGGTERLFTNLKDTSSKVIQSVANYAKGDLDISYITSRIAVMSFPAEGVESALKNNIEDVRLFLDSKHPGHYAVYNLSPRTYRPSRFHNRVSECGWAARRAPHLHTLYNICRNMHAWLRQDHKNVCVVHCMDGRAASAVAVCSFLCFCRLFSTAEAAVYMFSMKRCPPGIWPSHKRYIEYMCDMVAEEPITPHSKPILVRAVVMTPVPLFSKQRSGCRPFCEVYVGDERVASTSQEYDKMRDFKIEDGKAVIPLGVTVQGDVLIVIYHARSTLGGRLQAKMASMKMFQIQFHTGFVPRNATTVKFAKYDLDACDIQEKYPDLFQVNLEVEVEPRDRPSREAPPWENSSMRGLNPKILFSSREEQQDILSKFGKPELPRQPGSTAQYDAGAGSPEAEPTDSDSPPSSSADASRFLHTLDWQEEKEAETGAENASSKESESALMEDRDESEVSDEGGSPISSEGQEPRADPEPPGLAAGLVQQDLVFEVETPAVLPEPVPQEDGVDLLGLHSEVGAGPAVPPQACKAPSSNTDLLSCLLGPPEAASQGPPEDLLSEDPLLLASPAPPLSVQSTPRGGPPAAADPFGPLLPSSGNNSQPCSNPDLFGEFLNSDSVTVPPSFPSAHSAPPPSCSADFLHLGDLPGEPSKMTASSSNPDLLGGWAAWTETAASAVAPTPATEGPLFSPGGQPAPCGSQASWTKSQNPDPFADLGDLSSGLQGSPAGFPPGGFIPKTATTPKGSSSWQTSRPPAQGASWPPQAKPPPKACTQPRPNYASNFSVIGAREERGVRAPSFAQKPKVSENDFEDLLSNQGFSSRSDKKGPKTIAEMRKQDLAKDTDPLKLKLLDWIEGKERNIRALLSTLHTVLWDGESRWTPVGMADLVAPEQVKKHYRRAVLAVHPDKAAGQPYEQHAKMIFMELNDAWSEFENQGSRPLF
# Experimental: as §1
# MPSK1 = target: T3, MPSK1 (Homo sapiens, UniProt O75716); parameters: Thermal shift assay (DSF, SYPRO Orange), 2 uM kinase domain, mean delta Tm of triplicates versus DMSO; conditions: read-out: MPSK1
# T3 construct: gene STK16; catalytic domain-containing construct
# Experimental: as §1
# AAK1 = AAK1 (Homo sapiens, UniProt Q2M2I8); parameters: kinase domain; Thermal shift assay (DSF, SYPRO Orange), 2 uM kinase domain, mean delta Tm of triplicates versus DMSO; conditions: read-out: AAK1
# Experimental: as §1
# T3 sequence (O75716 whole entry, the tested form may be a part): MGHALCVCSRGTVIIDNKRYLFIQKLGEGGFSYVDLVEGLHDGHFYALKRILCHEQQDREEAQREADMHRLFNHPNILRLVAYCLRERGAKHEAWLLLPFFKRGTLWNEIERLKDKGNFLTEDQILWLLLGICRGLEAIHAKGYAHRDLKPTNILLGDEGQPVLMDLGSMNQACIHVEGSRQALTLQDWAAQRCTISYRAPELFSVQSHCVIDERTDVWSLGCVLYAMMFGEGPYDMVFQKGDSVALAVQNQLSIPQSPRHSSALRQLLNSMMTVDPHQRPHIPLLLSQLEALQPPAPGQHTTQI
# T1 sequence (Q9NSY1 whole entry, the tested form may be a part): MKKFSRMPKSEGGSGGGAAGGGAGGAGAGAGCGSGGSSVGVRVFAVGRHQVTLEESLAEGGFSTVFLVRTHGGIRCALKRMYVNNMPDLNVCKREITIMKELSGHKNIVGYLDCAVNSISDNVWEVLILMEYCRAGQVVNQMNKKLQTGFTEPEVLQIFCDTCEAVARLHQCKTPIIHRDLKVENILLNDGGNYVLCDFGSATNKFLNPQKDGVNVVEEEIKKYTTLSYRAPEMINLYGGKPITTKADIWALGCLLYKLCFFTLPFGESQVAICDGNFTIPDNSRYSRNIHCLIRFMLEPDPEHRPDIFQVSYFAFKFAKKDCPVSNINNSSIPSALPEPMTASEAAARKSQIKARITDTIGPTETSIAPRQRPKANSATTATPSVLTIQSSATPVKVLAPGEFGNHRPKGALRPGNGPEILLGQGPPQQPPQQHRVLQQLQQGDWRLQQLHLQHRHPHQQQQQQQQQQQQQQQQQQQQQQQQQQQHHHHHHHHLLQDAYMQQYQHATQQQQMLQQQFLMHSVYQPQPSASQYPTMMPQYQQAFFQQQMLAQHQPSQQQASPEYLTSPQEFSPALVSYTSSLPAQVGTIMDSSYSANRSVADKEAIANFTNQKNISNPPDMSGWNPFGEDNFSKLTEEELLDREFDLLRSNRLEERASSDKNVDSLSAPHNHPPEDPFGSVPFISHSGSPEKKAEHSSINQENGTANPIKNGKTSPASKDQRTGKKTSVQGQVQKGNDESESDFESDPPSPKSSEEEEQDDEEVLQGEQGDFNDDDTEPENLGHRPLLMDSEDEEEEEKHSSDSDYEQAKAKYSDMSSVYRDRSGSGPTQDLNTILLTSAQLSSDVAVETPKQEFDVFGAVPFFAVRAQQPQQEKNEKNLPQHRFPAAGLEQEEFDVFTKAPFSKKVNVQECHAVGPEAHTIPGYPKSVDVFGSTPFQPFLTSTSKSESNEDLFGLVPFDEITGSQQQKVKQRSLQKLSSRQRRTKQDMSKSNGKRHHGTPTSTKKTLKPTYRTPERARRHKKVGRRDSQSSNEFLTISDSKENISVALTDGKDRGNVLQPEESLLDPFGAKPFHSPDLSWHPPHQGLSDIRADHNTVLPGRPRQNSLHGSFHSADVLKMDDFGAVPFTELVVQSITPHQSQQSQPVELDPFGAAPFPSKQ
# Chain of AAK1 (Q2M2I8 27-365 limits assumed): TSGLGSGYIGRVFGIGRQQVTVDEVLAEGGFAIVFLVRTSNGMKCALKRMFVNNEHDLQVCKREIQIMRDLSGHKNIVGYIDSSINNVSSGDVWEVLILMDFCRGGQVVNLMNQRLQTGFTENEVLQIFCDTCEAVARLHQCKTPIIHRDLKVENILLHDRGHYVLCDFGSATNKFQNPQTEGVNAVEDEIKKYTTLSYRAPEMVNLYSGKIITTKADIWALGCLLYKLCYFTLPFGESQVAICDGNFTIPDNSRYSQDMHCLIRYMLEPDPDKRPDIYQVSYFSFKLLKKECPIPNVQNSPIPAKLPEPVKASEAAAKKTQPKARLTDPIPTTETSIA
ΔTm at 12.5 µM (BIKE),ΔTm at 12.5 µM (GAK),ΔTm at 12.5 µM (MPSK1),ΔTm at 12.5 µM (AAK1),GAK (GAK; 12.5 µM),SMILES
1.58 °C,0.667 °C,1.03 °C,0.543 °C,–,COc1cc2c(Oc3ccc4[nH]c(C)cc4c3F)ncnc2cc1OCCCN1CCCC1 [Cediranib]
12 °C,3.73 °C,4.1 °C,4.66 °C,–,CC1(COc2ccc3c(c2)ncn3-c2ccc3cccc(N4CCC(N)CC4)c3n2)COC1 [Crenolanib]
7.44 °C,-0.44 °C,1.95 °C,3.01 °C,–,C[C@@H](Oc1cc(-c2cnn(C3CCNCC3)c2)cnc1N)c1c(Cl)ccc(F)c1Cl [Crizotinib]
2.95 °C,9.06 °C,4.06 °C,2.23 °C,–,CC(C)(C)c1nc(-c2cccc(NS(=O)(=O)c3c(F)cccc3F)c2F)c(-c2ccnc(N)n2)s1 [Dabrafenib]
5.85 °C,7.28 °C,0.97 °C,3.8 °C,–,COc1cc2ncnc(Nc3ccc(F)c(Cl)c3)c2cc1NC(=O)/C=C/CN1CCCCC1 [Dacomitinib]
0.873 °C,-0.05 °C,1.49 °C,0.747 °C,–,Cn1c(=O)n(-c2ccc(C(C)(C)C#N)cc2)c2c3cc(-c4cnc5ccccc5c4)ccc3ncc21 [Dactolisib]
1.68 °C,0.59 °C,2.36 °C,1.74 °C,–,CO[C@@H](C(=O)N1Cc2[nH]nc(NC(=O)c3ccc(N4CCN(C)CC4)cc3)c2C1)c1ccccc1 [Danusertib]
-0.673 °C,–,0.0333 °C,0.363 °C,0.14 °C,Cc1nc(Nc2ncc(C(=O)Nc3c(C)cccc3Cl)s2)cc(N2CCN(CCO)CC2)n1 [Dasatinib]
0.5 °C,-1.13 °C,1 °C,0.23 °C,–,CCc1cnn2c(NCc3ccc[n+]([O-])c3)cc(N3CCCC[C@H]3CCO)nc12 [Dinaciclib]
0.16 °C,-0.607 °C,0.217 °C,-0.103 °C,–,Cc1ccc(-n2nc(C(C)(C)C)cc2NC(=O)Nc2ccc(OCCN3CCOCC3)c3ccccc23)cc1 [Doramapimod]
0.12 °C,-0.0367 °C,0.593 °C,0.263 °C,–,CN1CCN(c2ccc3nc(-c4c(N)c5c(F)cccc5[nH]c4=O)[nH]c3c2)CC1 [Dovitinib]
0.493 °C,-0.86 °C,0.74 °C,0.79 °C,–,CN1CCC(COc2cnc(-c3cccc(Cn4nc(-c5cccc(C#N)c5)ccc4=O)c3)nc2)CC1 [EMD1214063]
1.79 °C,-0.347 °C,1.94 °C,0.7 °C,–,Cn1cc(C2=C(c3cn(C4CCN(Cc5ccccn5)CC4)c4ccccc34)C(=O)NC2=O)c2ccccc21 [Enzastaurin]
5.66 °C,3.74 °C,0.883 °C,2.7 °C,–,C#Cc1cccc(Nc2ncnc3cc(OCCOC)c(OCCOC)cc23)c1 [Erlotinib]
7 °C,-0.0367 °C,0.903 °C,3.27 °C,–,O=S(=O)(c1cccc2cnccc12)N1CCCNCC1 [Fasudil]
14 °C,8.95 °C,12.4 °C,10.6 °C,–,Cc1cnc(Nc2ccc(OCCN3CCCC3)cc2)nc1Nc1cccc(S(=O)(=O)NC(C)(C)C)c1 [Fedratinib]
1.32 °C,2.36 °C,1.87 °C,1.13 °C,–,COc1cc2c(Oc3ccc(NC(=O)C4(C(=O)Nc5ccc(F)cc5)CC4)cc3F)ccnc2cc1OCCCN1CCOCC1 [Foretinib]
6.73 °C,0.157 °C,2.88 °C,7.43 °C,–,CCn1c(-c2nonc2N)nc2cnc(Oc3cccc(NC(=O)c4ccc(OCCN5CCOCC5)cc4)c3)cc21 [GSK269962]
